Here are results for 18 compounds from ChEMBL document CHEMBL5050844 (2019).

A short description of assay [1]: Induction of anti-CD3/CD28 antibodies-stimulated human T cell activation at 4 uM assessed fold increase in IL-2 secretion measured by ELISA assay. The assay is classed as functional, T cell line.
Assay [2] can be described thus: Induction of anti-CD3/CD28 antibodies-stimulated human T cell activation at 1 uM assessed fold increase in IL-2 secretion measured by ELISA assay. The assay is classed as functional, T cell line. A general note: An ELISA detects its analyte on a solid surface through an enzyme-linked reagent.
Assay [3] is described as follows: Induction of anti-CD3/CD28 antibodies-stimulated human T cell activation at 0.3 uM assessed fold increase in IL-2 secretion measured by ELISA assay. Format: functional, T cell line.
The nature of assay [4]: Induction of anti-CD3 antibodies-stimulated human T cell activation at 8 uM assessed fold increase in IL-2 secretion measured by ELISA assay. Further: reference of the scale not given here. Format: functional, T cell line.
Assay [5] in a line: Induction of anti-CD3 antibodies-stimulated human T cell activation at 1 uM assessed fold increase in IL-2 secretion measured by ELISA assay. Further: reference of the scale not given here. Format: functional, T cell line.
A short description of assay [6]: Induction of anti-CD3/CD28 antibodies-stimulated human T cell activation at 4 uM assessed fold increase in CD25 expression measured by ELISA assay. Format: functional, T cell line.
Assay [7] can be described thus: Induction of anti-CD3/CD28 antibodies-stimulated human T cell activation at 1 uM assessed fold increase in CD25 expression measured by ELISA assay. The assay is classed as functional, T cell line.
Assay [8] can be described thus: Induction of anti-CD3/CD28 antibodies-stimulated human T cell activation at 0.3 uM assessed fold increase in CD25 expression measured by ELISA assay. The assay is classed as functional, T cell line.
A short description of assay [9]: Induction of anti-CD3 antibodies-stimulated human T cell activation at 8 uM assessed fold increase in CD25 expression measured by ELISA assay. Further: reference of the scale not given here. The assay is classed as functional, T cell line.
Assay [10] can be described thus: Induction of anti-CD3 antibodies-stimulated human T cell activation at 1 uM assessed fold increase in CD25 expression measured by ELISA assay. Further: reference of the scale not given here. The assay is classed as functional, T cell line.
The target of assay [11] is E3 ubiquitin-protein ligase CBL-B (Homo sapiens, UniProt Q13191). As to the kind of experiment: Inhibition of N-terminal Avi-tagged human CBL-B (36 to 427 residues) incubated with 60 nM Src kinase for 1.5 hrs followed by incubation with fluorescently labeled UbcH5B-Ub for 1 hr and measured by TR-FRET assay. The assay is classed as single protein. In general terms: In TR-FRET formats the signal depends on donor and acceptor labels being close together.
Sequence of E3 ubiquitin-protein ligase CBL-B (Q13191 whole entry, the tested form may be a part): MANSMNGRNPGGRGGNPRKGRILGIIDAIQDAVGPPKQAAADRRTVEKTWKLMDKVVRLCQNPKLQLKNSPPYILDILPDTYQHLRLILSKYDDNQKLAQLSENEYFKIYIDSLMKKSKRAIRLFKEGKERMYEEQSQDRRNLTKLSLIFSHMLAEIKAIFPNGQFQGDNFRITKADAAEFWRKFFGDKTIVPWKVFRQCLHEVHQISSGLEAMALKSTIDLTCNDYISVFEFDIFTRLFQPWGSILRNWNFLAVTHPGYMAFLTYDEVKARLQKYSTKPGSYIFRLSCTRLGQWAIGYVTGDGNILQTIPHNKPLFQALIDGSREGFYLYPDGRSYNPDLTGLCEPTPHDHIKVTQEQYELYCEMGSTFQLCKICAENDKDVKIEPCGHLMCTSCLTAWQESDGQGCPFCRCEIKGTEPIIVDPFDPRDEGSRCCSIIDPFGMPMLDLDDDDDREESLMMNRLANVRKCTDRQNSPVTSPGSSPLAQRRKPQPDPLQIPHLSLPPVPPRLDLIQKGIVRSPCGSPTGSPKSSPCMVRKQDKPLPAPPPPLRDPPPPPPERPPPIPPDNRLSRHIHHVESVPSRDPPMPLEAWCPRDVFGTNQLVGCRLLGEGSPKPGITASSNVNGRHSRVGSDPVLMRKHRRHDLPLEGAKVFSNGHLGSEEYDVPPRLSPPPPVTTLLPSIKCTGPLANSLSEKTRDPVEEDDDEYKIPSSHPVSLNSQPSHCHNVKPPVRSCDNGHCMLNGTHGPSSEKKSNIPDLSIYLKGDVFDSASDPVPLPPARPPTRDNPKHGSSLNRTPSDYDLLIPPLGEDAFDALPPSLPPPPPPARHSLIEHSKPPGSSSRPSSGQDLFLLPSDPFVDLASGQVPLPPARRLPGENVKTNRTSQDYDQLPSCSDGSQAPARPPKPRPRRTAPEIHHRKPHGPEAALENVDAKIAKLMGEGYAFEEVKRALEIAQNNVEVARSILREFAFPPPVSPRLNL

In the case of `C[C@H](Sc1nncn1C)c1ccc(F)c(NC(=O)c2cccc(C(F)(F)F)n2)c1`, the “fold change (FC)” value was 2.51 in assay [1]; 1.01 in assay [2]; 1.01 in assay [3]; 0.051 in assay [4]; “<=0.05” in [5]; 1.01 in [6]. Besides, the “fold change (FC)” value was 1.01 in assay [7], “<=1” in [8], “<=0.6” in assay [9] and “<=0.6” in [10].
Regarding `C[C@H](Sc1nncn1C)c1cccc(NC(=O)c2cc(C3(O)COC3)cc(C(F)(F)F)n2)c1`, the “fold change (FC)” value in assay [1] was “<=1”; in assay [2], “<=1”; in [3], “<=1”; in assay [4], “<=0.05”; in assay [5], “<=0.05”; in [6], 1.01. Also, the “fold change (FC)” value is reported as 1.01 in assay [7], “<=1” in assay [8], 0.601 in assay [9] and “<=0.6” in [10].
Turning to `C[C@H](Cc1nocc1C(F)(F)F)c1cccc(N2Cc3c(cc(C(=O)N4CC[C@H](O)C4)cc3C(F)(F)F)C2=O)c1`, the “fold change (FC)” value in [1] is given as 2.51; in assay [2], 1.01; in [3] it was 1.01; in [4], “>=0.201”; in assay [5] it was 0.051; in [6] it was 1.31. Besides, the “fold change (FC)” value is given as 1.01 in assay [7], 1.01 in assay [8], “>=1.001” in [9] and 0.601 in assay [10].
In the case of `CNC(=O)COc1ccc2cnc(C(=O)Nc3cccc([C@H](C)Sc4nncn4C)c3)cc2c1`, the “fold change (FC)” value is given as 1.01 in assay [1]; 1.01 in assay [2]; “<=1” in [3]; “<=0.05” in assay [4]; “<=0.05” in [5]; 1.01 in assay [6]. The “fold change (FC)” value was 1.01 in [7], 1.01 in assay [8], 0.801 in assay [9] and “<=0.6” in assay [10].
In the case of `COc1cc(C(=O)Nc2cccc([C@H](C)Sc3nncn3C)c2)nc(C(F)(F)F)c1`, the “fold change (FC)” value in assay [1] is recorded as 5; in assay [2], 2.51; in assay [3] it was 2.51; in [4] it was “>=0.201”; in assay [5], 0.051; in [6], “>=1.76”. The “fold change (FC)” value in [7] amounted to 1.51; in assay [8] it was 1.01; in [9], 0.801; in assay [10], 0.801.
On to `Cc1ccc(C(=O)Nc2cccc([C@H](C)Cc3nnc[nH]3)c2)nc1C1CC1`, for which the “fold change (FC)” value in assay [1] is reported as 1.01; in [2] it was 1.01; in assay [3], 1.01; in assay [4], “<=0.05”; in [5], “<=0.05”; in assay [6], “>=1.76”. The “fold change (FC)” value is 1.51 in [7], 1.51 in assay [8], “<=0.6” in [9] and “<=0.6” in assay [10].
As to `C[C@H](Cc1nncn1C)c1cccc(NC(=O)c2cc(C(F)(F)F)n[nH]2)c1`, the “fold change (FC)” value in assay [1] is on record as 1.01; in assay [2], 1.01; in assay [3] it was 1.01; in [4] it was 0.101; in [5], 0.051; in assay [6], 1.01. Moreover, the “fold change (FC)” value in assay [7] turned out to be 1.01; in assay [8] it was 1.01; in assay [9] it was 0.601; in assay [10], 0.601.
On to `C[C@H](Cc1nncn1C)c1cc(N[C@@H](C)CO)nc(N2Cc3c(cccc3C(F)(F)F)C2=O)c1`, for which the “fold change (FC)” value is on record as 2.51 in [1]; 1.01 in [2]; 1.01 in assay [3]; 0.151 in [4]; 0.051 in [5]; 1.01 in assay [6]. Also, the “fold change (FC)” value in assay [7] is listed as 1.01; in assay [8] it was 1.01; in assay [9], “>=1.001”; in [10], 0.601.
With `C[C@H](Cc1nncn1C)c1cccc(NC(=O)c2cc(C(C)(C)O)cc(C(F)(F)F)n2)c1`, the “fold change (FC)” value in assay [1] is given as 5; in [2], 2.51; in [3], 1.01; in [4] it was “>=0.201”; in [5] it was 0.101; in assay [6], 1.01. The “fold change (FC)” value in assay [7] is listed as 1.01; in assay [8], 1.01; in [9] it was “>=1.001”; in assay [10], 0.801.
For the compound `C[C@H](Sc1nncn1C)c1cccc(N2Cc3c(cccc3C(F)(F)F)C2=O)c1`, the “fold change (FC)” value in assay [1] is given as 1.01; in assay [2] it was “<=1”; in assay [3] it was “<=1”; in assay [4], “<=0.05”; in assay [5] it was “<=0.05”; in assay [6] it was 1.01. Moreover, the “fold change (FC)” value in assay [7] was 1.01; in assay [8] it was “<=1”; in assay [9] it was 0.801; in [10] it was 0.601.
With `Cc1cnnn1C[C@@H](C)c1cccc(NC(=O)c2cccc(C(F)(F)F)n2)c1`, the “fold change (FC)” value in assay [1] worked out at 2.51; in assay [2], 1.01; in [3] it was 1.01; in assay [4] it was 0.151; in assay [5] it was 0.051; in assay [6], 1.01. Besides, the “fold change (FC)” value in [7] is given as 1.01; in assay [8], “<=1”; in assay [9], 0.801; in [10], 0.601.
For the compound `C[C@H](Cc1nncn1C)c1cc(NC2COC2)cc(N2Cc3c(cccc3C(F)(F)F)C2=O)c1`, the “fold change (FC)” value in assay [1] was 1.01; in assay [2], 1.01; in assay [3] it was “<=1”; in [4] it was 0.051; in [5], 0.051; in assay [6] it was 1.01. Also, the “fold change (FC)” value in assay [7] is 1.01; in [8], 1.01; in assay [9], 0.801; in assay [10] it was 0.601.
Consider `CC(Sc1nncn1C)c1cc(F)cc(N2Cc3c(cccc3C(F)(F)F)C2=O)c1` (stereo not given), for which the “fold change (FC)” value in assay [1] was 1.01; in [2], 1.01; in [3], 1.01; in [4] it was 0.051; in [5], “<=0.05”; in assay [6] it was 1.01. Besides, the “fold change (FC)” value in assay [7] is “<=1”; in assay [8], “<=1”; in assay [9] it was 0.601; in assay [10], 0.801.
Regarding `C[C@H](Cc1nnc[nH]1)c1cccc(N2Cc3c(cccc3C(F)(F)F)C2=O)c1`, the “fold change (FC)” value in assay [1] is on record as 1.01; in assay [2], “<=1”; in [3], “<=1”; in assay [4], “<=0.05”; in assay [5], “<=0.05”; in assay [6] it was 1.31. Also, the “fold change (FC)” value in assay [7] is 1.31; in assay [8], 1.01; in assay [9], “<=0.6”; in assay [10], “<=0.6”.
Take `C[C@H](Cc1nncn1C)c1cccc(N2Cc3c(ccnc3C(C)(C)F)C2=O)c1`: the “fold change (FC)” value in assay [1] is given as “>=7.5”.
Turning to `Cc1ccc(C(=O)Nc2cccc([C@@H](C)Cc3nccn3C)c2)nc1C1CC1`, the “fold change (FC)” value in [1] (4 µM) is recorded as 1.01; in [2] (1 µM), 1.01; in assay [3] (0.3 µM) it was 1.01; in [5] (1 µM) it was “<=0.05”; in [9] (8 µM), 0.601.
By IC50 is commonly meant the point on the concentration scale where inhibition reaches its midpoint. Take `Cn1cnnc1CC1(c2cccc(N3Cc4c(cc(CN5CCOC6(CCC6)C5)cc4C(F)(F)F)C3=O)c2)COC1`: the IC50 in assay [11] is below 100 nM. Also, the “fold change (FC)” value in [2] is “>=7.5”; in [3], “>=7.5”; in [5], “>=0.201”; in [7] it was 1.01; in [8], 1.01; in assay [10], “>=1.001”.
`Cn1cnnc1CC1(c2cccc(N3Cc4c(cc(N5CCN6CCC[C@@H]6C5)cc4C(F)(F)F)C3=O)c2)COC1` displayed an IC50 in [11] below 100 nM. The “fold change (FC)” value in [2] is recorded as “>=7.5”; in [3] it was “>=7.5”; in assay [5] it was “>=0.201”; in assay [7] it was “>=1.76”; in assay [8] it was “>=1.76”; in assay [10] it was “>=1.001”.
